Test results published in the supplement of paper PMC10307832.

Experiments:
Experiment in all cases: relative viability (nuclei count vs DMSO), 5 days (fraction); higher = more cells survive
[1] = compound: C1=CC=C2C(=C1)N=C(S2)C(C#N)C3=NC(=NC=C3)NCCC4=CN=CC=C4 + NC(=O)Nc1cc(-c2cccc(F)c2)sc1C(=O)N[C@H]1CCCNC1 [AZD7762] (partner 0.2 µM)
Outline: (§1)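 One day after seeding in 1536-well plates, lung cancer cell lines were dosed by pin tool. Dosing was either single-drug or a fixed anchor-drug dose plus five library-drug doses (not always all listed) in √10 steps. After 5 days, nuclei were stained in one fix-and-stain step and counted on 4× images, and relative viability is the nuclei count of treated wells over that of vehicle wells, given as the median of duplicate plates.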

CUDC-101 + Trametinib = compound: C#Cc1cccc(Nc2ncnc3cc(OC)c(OCCCCCCC(=O)NO)cc23)c1 [CUDC-101] + CC(=O)Nc1cccc(-n2c(=O)n(C3CC3)c(=O)c3c(Nc4ccc(I)cc4F)n(C)c(=O)c(C)c32)c1 [Trametinib] (partner 0.02 µM)
Outline: as §1

CUDC-101 + Crizotinib = compound: C#Cc1cccc(Nc2ncnc3cc(OC)c(OCCCCCCC(=O)NO)cc23)c1 [CUDC-101] + C[C@@H](Oc1cc(-c2cnn(C3CCNCC3)c2)cnc1N)c1c(Cl)ccc(F)c1Cl [Crizotinib] (partner 1 µM)
Outline: as §1

[2] = compound: C1=CC=C2C(=C1)N=C(S2)C(C#N)C3=NC(=NC=C3)NCCC4=CN=CC=C4 + CC(=O)c1c(C)c2cnc(Nc3ccc(N4CCNCC4)cn3)nc2n(C2CCCC2)c1=O [Palbociclib] (partner 0.5 µM)
Outline: as §1

| Cell Line | relative viability ([1]; first compound 0.005 µM) | relative viability ([1]; first compound 0.01581 µM) | relative viability ([1]; first compound 0.05 µM) | relative viability ([1]; first compound 0.1581 µM) | relative viability ([1]; first compound 0.5 µM) | relative viability (CUDC-101 + Trametinib; first compound 0.01 µM) | relative viability (CUDC-101 + Trametinib; first compound 0.03162 µM) | relative viability (CUDC-101 + Trametinib; first compound 0.1 µM) | relative viability (CUDC-101 + Trametinib; first compound 0.3162 µM) | relative viability (CUDC-101 + Trametinib; first compound 1 µM) | relative viability (CUDC-101 + Crizotinib; first compound 0.01 µM) | relative viability (CUDC-101 + Crizotinib; first compound 0.03162 µM) | relative viability (CUDC-101 + Crizotinib; first compound 0.1 µM) | relative viability (CUDC-101 + Crizotinib; first compound 0.3162 µM) | relative viability (CUDC-101 + Crizotinib; first compound 1 µM) | relative viability ([2]; first compound 0.005 µM) | relative viability ([2]; first compound 0.01581 µM) | relative viability ([2]; first compound 0.05 µM) | relative viability ([2]; first compound 0.1581 µM) | relative viability ([2]; first compound 0.5 µM) |
| --- | --- | --- | --- | --- | --- | --- | --- | --- | --- | --- | --- | --- | --- | --- | --- | --- | --- | --- | --- | --- |
| NCI-H2170 | 0.861 | 0.995 | 0.861 | 0.968 | 0.744 | 0.951 | 0.967 | 0.883 | 0.939 | 0.843 | 1.14 | 1.23 | 1.17 | 1.2 | 0.732 | 0.284 | 0.391 | 0.38 | 0.43 | 0.34 |
| NCI-H1648 | – | 0.689 | – | 0.569 | 0.604 | 0.461 | 0.595 | 0.437 | 0.351 | 0.277 | – | – | – | – | – | – | 0.294 | – | 0.331 | 0.281 |
| LU99A | 0.444 | 0.469 | – | 0.343 | 0.262 | 0.444 | 0.539 | 0.617 | 0.535 | 0.374 | 0.516 | 0.585 | 0.458 | 0.45 | 0.256 | 0.398 | 0.41 | – | 0.47 | 0.39 |
| PC-3 [JPC-3] | 0.702 | – | 0.822 | 0.997 | 0.654 | 0.608 | 0.519 | 0.494 | 0.455 | 0.323 | 0.983 | 0.97 | 0.82 | 0.82 | 0.278 | 0.592 | – | 0.534 | 0.532 | 0.515 |
| A549 | – | – | – | – | – | – | – | – | – | – | 0.855 | 1 | 0.927 | 0.793 | 0.632 | – | – | – | – | – |
| NCI-H661 | – | – | – | – | – | 0.566 | 0.529 | 0.609 | 0.542 | 0.374 | 1.07 | 1.08 | 0.954 | 1.03 | 0.943 | 0.428 | 0.433 | 0.415 | 0.416 | 0.411 |
| Calu-6 | – | – | – | – | – | – | – | – | – | – | 0.835 | 0.958 | 0.745 | 0.664 | 0.547 | – | – | – | – | – |
| NCI-H1703 | 0.118 | 0.121 | 0.123 | 0.109 | 0.108 | – | – | – | – | – | 1.07 | 0.707 | 0.765 | 0.712 | 0.477 | – | – | – | – | – |
| SK-MES-1 | – | – | – | – | – | 0.488 | 0.488 | 0.493 | 0.431 | 0.319 | 1.06 | 1 | 1.02 | 1.04 | 0.945 | 0.311 | 0.292 | 0.315 | 0.334 | 0.288 |
| NCI-H1299 | – | – | – | – | – | – | – | – | – | – | 0.926 | 0.957 | 0.998 | 0.837 | 0.934 | – | – | – | – | – |
| NCI-H520 | – | – | – | – | – | 0.572 | 0.688 | 0.788 | 0.674 | 0.251 | 0.743 | – | 0.756 | 0.636 | 0.316 | 0.193 | 0.266 | 0.231 | 0.259 | 0.213 |
| NCI-H1650 | – | – | – | – | – | 0.637 | 0.477 | 0.494 | 0.588 | 0.372 | 0.859 | 0.782 | 0.942 | 0.796 | 0.595 | 0.318 | 0.272 | 0.336 | 0.395 | 0.175 |
| NCI-H2228 | – | – | – | – | – | 0.553 | 0.467 | 0.486 | 0.912 | 0.537 | 0.46 | 0.551 | 0.492 | 0.411 | 0.318 | 0.564 | 0.886 | 0.649 | 1.12 | 0.597 |
| NCI-H1395 | 0.392 | – | 0.379 | 0.428 | 0.389 | 1.13 | 1.05 | 1.01 | 1.19 | 0.981 | – | – | – | – | – | 0.616 | – | 0.524 | 0.726 | 0.601 |
| COR-L 105 | – | – | – | – | – | 0.442 | 0.424 | 0.41 | 0.452 | 0.311 | 0.724 | 0.825 | 0.725 | 0.433 | 0.267 | 0.376 | 0.408 | 0.435 | 0.39 | 0.345 |
| NCI-H2023 | – | – | – | – | – | 0.615 | 0.542 | 0.578 | 0.551 | 0.428 | 0.623 | 0.602 | 0.622 | 0.628 | 0.558 | 0.328 | 0.309 | 0.394 | 0.383 | 0.332 |
| SW 1573 | – | – | – | – | – | 0.638 | 0.5 | 0.599 | 0.592 | 0.392 | 0.805 | 0.804 | 0.927 | 1.09 | 0.423 | 0.306 | 0.325 | 0.389 | 0.478 | 0.299 |
| SW 900 | 0.693 | 0.634 | 0.548 | 0.622 | 0.533 | 0.914 | 0.74 | 0.799 | 0.627 | 0.746 | – | – | – | – | – | 0.441 | 0.496 | 0.412 | 0.586 | 0.458 |
| NCI-H522 | 0.885 | 0.654 | 0.768 | 0.787 | 0.839 | 0.605 | 0.747 | 0.893 | 0.651 | 0.642 | – | – | – | – | – | 0.95 | 0.958 | 0.96 | 0.917 | 1.09 |
| NCI-H1793 | – | 0.391 | 0.58 | 0.513 | 0.306 | 0.331 | 0.347 | 0.349 | 0.427 | 0.44 | – | – | – | – | – | – | 0.344 | 0.29 | 0.319 | 0.276 |
| IA-LM | – | – | – | – | – | – | – | – | – | – | 0.944 | 0.91 | 0.868 | 0.587 | 0.466 | – | – | – | – | – |
| SK-LU-1 | – | – | – | – | – | 0.475 | 0.439 | 0.551 | 0.663 | 0.456 | 1.13 | 1.03 | 0.795 | 0.77 | 0.579 | 0.412 | 0.399 | 0.31 | 0.41 | 0.395 |
| ABC-1 | 0.913 | 0.809 | 0.789 | 0.921 | 0.848 | – | – | – | – | – | 0.941 | 0.906 | 0.742 | 0.44 | 0.33 | 0.525 | – | 0.597 | 0.554 | 0.451 |
| COR-L23 | – | – | – | – | – | 0.641 | 0.548 | 0.74 | 0.574 | 0.332 | 0.677 | 0.674 | 0.626 | 0.555 | 0.295 | 0.236 | 0.312 | 0.229 | 0.281 | 0.24 |
